SMILES strings stand for the structures. Activity calls are given as the source filed them. No cut-off for these calls is given here.

Here are results for 2 compounds from ChEMBL document CHEMBL5257159, “Insights into targeting SARS-CoV-2: design, synthesis, in silico studies and antiviral evaluation of new dimethylxanthine derivatives” (RSC Med Chem, 2023).

One assay has as its system EKVX. Description: Cytotoxicity against human EKVX cells assessed as inhibition of cell growth incubated for 48 hrs by SRB assay. It counts as functional, cell-based.
The next assay has as its system OVCAR-5. In words: Cytotoxicity against human OVCAR-5 cells assessed as inhibition of cell growth incubated for 48 hrs by SRB assay. It counts as functional, cell-based.
A further assay deals with U-251. Description: Cytotoxicity against human U-251 cells assessed as inhibition of cell growth incubated for 48 hrs by SRB assay. It counts as functional, cell-based. On the technique in general: The SRB assay estimates cell density from bound dye.
The subject of the next assay is UACC-257. In words: Cytotoxicity against human UACC-257 cells assessed as inhibition of cell growth incubated for 48 hrs by SRB assay. It counts as functional, cell-based.
A further assay has as its system NCI-H322M. In words: Cytotoxicity against human NCI-H322M cells assessed as inhibition of cell growth incubated for 48 hrs by SRB assay. It counts as functional, cell-based.
A further assay has as its system MDA-MB-468. Description: Cytotoxicity against human MDA-MB-468 cells assessed as inhibition of cell growth incubated for 48 hrs by SRB assay. It counts as functional, cell-based.
Assay [1] concerns HOP-62. Description: Growth inhibition of human HOP-62 cells incubated for 48 hrs by SRB assay relative to control. It counts as functional.
A further assay relates to SK-MEL-28. Description: Cytotoxicity against human SK-MEL-28 cells assessed as inhibition of cell growth incubated for 48 hrs by SRB assay. The format is functional, cell-based.
The subject of assay [2] is UO-31. Description: Cytotoxicity against human UO-31 cells assessed as inhibition of cell growth incubated for 48 hrs by SRB assay. The format is functional, cell-based.
The subject of another assay is SF-295. Description: Cytotoxicity against human SF-295 cells assessed as inhibition of cell growth incubated for 48 hrs by SRB assay. The format is functional, cell-based.
For a further assay, the system named is 786-0. In words: Cytotoxicity against human 786-0 cells assessed as inhibition of cell growth incubated for 48 hrs by SRB assay. The format is functional, cell-based.
In a further assay the test system is SF-539. In words: Cytotoxicity against human SF-539 cells assessed as inhibition of cell growth incubated for 48 hrs by SRB assay. It counts as functional, cell-based.
A further assay has as its system PC-3. Description: Cytotoxicity against human PC-3 cells assessed as inhibition of cell growth incubated for 48 hrs by SRB assay. The format is functional, cell-based.
A further assay concerns MOLT-4. Description: Cytotoxicity against human MOLT-4 cells assessed as inhibition of cell growth incubated for 48 hrs by SRB assay. The format is functional, cell-based.
The test system of a further assay is HCT-15. Description: Cytotoxicity against human HCT-15 cells assessed as inhibition of cell growth incubated for 48 hrs by SRB assay. The format is functional, cell-based.
A further assay has as its system SW-620. In words: Cytotoxicity against human SW620 cells assessed as inhibition of cell growth incubated for 48 hrs by SRB assay. The format is functional, cell-based.
In assay [3] the test system is UO-31. Description: Growth inhibition of human UO-31 cells incubated for 48 hrs by SRB assay relative to control. The format is functional.
In assay [4] the target is T1, Replicase polyprotein 1ab (Severe acute respiratory syndrome coronavirus 2, UniProt P0DTD1). Description: Inhibition of SARS-CoV-2 RdRP using ATP substrate preincubated with compound for 30 mins followed by substrate addition and measured after 30 mins by Alphascreen microplate reader analysis. In general terms: In Alpha technology, singlet oxygen from a donor bead excites a nearby acceptor bead.

Assay [5] deals with T1, Replicase polyprotein 1ab. Description: Inhibition of MBP tagged recombinant SARS-CoV-2 main protease using DABCYL-KTSAVLeu(13C6,15N)-Q as substrate incubated for 2 to 3 hrs by mass spectrometric analysis.
Assay [6] concerns HOP-62. In words: Cytotoxicity against human HOP-62 cells assessed as inhibition of cell growth incubated for 48 hrs by SRB assay. It counts as functional, cell-based.

Turning to `Cn1c(=O)c2c(ncn2CCC(=O)Nc2ccc(S(=O)(=O)Nc3ncccn3)cc2)n(C)c1=O`, the result with EKVX, in the assay with OVCAR-5, with U-251, in the assay with UACC-257, in the assay on NCI-H322M and with MDA-MB-468 was inactive. Besides, the result with SK-MEL-28, in the assay on UO-31 [2], in the assay with SF-295, with 786-0, in the assay on SF-539 and with PC-3 was inactive. In addition, the outcome in the assay on MOLT-4, in the assay on HCT-15 and with SW-620 was inactive. In addition, the “growth inhibition (GI)” value with HOP-62 [1] turned out to be 16.12%.

As usually defined, the IC50 is the concentration that gives 50% inhibition. Take `Cn1cnc2c1c(=O)n(CC(=O)Nc1ccc(S(=O)(=O)Nc3ncccn3)cc1)c(=O)n2C`: the result in the assay on EKVX, with OVCAR-5, with U-251, with UACC-257, in the assay on NCI-H322M and in the assay with MDA-MB-468 was inactive. The outcome in the assay with SK-MEL-28, in the assay on SF-295, with 786-0, with HOP-62 [6], with SF-539 and in the assay with PC-3 was inactive. Further, the outcome in the assay on MOLT-4, with HCT-15 and with SW-620 was inactive. The “growth inhibition (GI)” value in the assay on UO-31 [3] was determined as 17.55%. The IC50 turned out to be 3.22 µM in [4] and 8.06 µM in assay [5].
